Results on 13 molecules are retold here after patent publication US5576335A, “Urea derivatives and their use as ACAT inhibitors” (Nisshin Flour Milling Co., Ltd., priority 1994, dated 1996).

For experiment [1], the system named is ACAT. Briefly: ACAT inhibitory activity (labelled cholesteryl ester formation from [1-14C]oleoyl-CoA, liver microsome fractions). The settings on record: compound at 10^-7 M; rabbit liver microsomes; percent inhibition of formation of labelled cholesteryl esters. It is filed as biochemical. The method, then:
1. ACAT inhibitory activity
The enzyme preparation, ACAT was prepared from liver microsome fractions of male rabbits according to the method of E. E. Largis et al. (Journal of Lipid Research, Vol. 30, pages 681-690, 1989). The activity was calculated by assaying the amount of the labelled cholesteryl esters formed from [1-^14 C]oleoyl-CoA and endogenous cholesterol according to the method of Kazuichi NATORI et al. (Japan J. Pharmacol., Vol. 42, pages 517-523, 1986).
The result is shown in Table 1, in which percent inhibition of the formation of the labelled cholesteryl esters with a compound added at 10^-7 M is indicated as index for the ACAT inhibitory activity.

Experiment [2] relates to Human LDL. Briefly: Antioxidative activity (inhibition of MDA formation in cupric sulfate-induced peroxidation of LDL). In kind it is biochemical. To be noted: compound 10^-5 M, cupric sulfate 5×10^-6 M, 5 hrs, percent inhibition of MDA formation vs control. The procedure:
2. Antioxidative activity
Human LDL was incubated in the presence of cupric sulfate (5×10^-6 M) and in the presence or absence of a compound (10^-5 M) for 5 hrs. After the incubation, the peroxidation of low-density lipoproteins (LDL) is evaluated by the formation of malondialdehyde (MDA), which is a sort of lipid peroxides according to the method of Simon J. T. Mao et al. (J. Med. Chem., Vol. 34, pages 298-302, 1991). Activity of the compound is shown by percent inhibition of the MDA formation as compared with control.

`CCCCCCCNC(=O)Nc1cc(OC)ccc1NC(=O)c1cc(C(C)(C)C)c(O)c(C(C)(C)C)c1` [Example 36, N-[2-(3-heptylureido)-4-methoxyphenyl]-3,5-di-t-butyl-4-hydroxybenzamide]: the “ACAT Inhibition (%)” value in experiment [1] amounted to 77%. Further, in experiment [2], the “Antioxidant Activity (%)” value is given as 92%.

For the molecule `CCCCCCCNC(=O)Nc1ccccc1NC(=O)c1cc(C(C)(C)C)c(O)c(C(C)(C)C)c1` [Example 6, N-[2-(3-heptylureido)phenyl]-3,5-di-t-butyl-4-hydroxybenzamide], in experiment [1], the “ACAT Inhibition (%)” value was 79%. In experiment [2], the “Antioxidant Activity (%)” value is 82%.

Consider `CC(C)(C)c1cc(C(=O)Nc2ccccc2NC(=O)NCC(c2ccccc2)c2ccccc2)cc(C(C)(C)C)c1O` [Example 7, N-[2-(3-(2,2-diphenylethyl)ureido]phenyl]-3,5-di-t-butyl-4-hydroxybenzamide], for which, in experiment [1], the “ACAT Inhibition (%)” value amounted to 86%. In addition, the “Antioxidant Activity (%)” value in experiment [2] turned out to be 75%.

For `COc1ccc(NC(=O)N(Cc2ccccc2)Cc2ccccc2)c(NC(=O)c2cc(C(C)(C)C)c(O)c(C(C)(C)C)c2)c1` [Example 20, N-[2-(3,3-dibenzylureido)-5-methoxyphenyl]-3,5-di-t-butyl-4-hydroxybenzamide], the “ACAT Inhibition (%)” value in experiment [1] amounted to 99%.

On to `CCCCCCCN(C)C(=O)Nc1cc(Cl)c(Cl)cc1NC(=O)c1cc(C(C)(C)C)c(O)c(C(C)(C)C)c1` [Example 35, N-[4,5-dichloro-2-(3-heptyl-3-methylureido)phenyl]-3,5-di-t-butyl-4-hydroxybenzamide], for which the “ACAT Inhibition (%)” value in experiment [1] is on record as 71%.

Regarding `CC(C)(C)c1cc(C(=O)Nc2ccccc2NC(=O)NC23CC4CC(CC(C4)C2)C3)cc(C(C)(C)C)c1O` [Example 11, N-[2-(3-adamantyl)ureido]phenyl-3,5-di-t-butyl-4-hydroxybenzamide], in experiment [1], the “ACAT Inhibition (%)” value worked out at 73%.

`CC(C)(C)c1cc(C(=O)Nc2ccccc2NC(=O)N(Cc2ccccc2)Cc2ccccn2)cc(C(C)(C)C)c1O` [Example 12, N-[2-[3-benzyl-3-(2-pyridylmethyl)ureido]phenyl]-3,5-di-t-butyl-4-hydroxybenzamide]: the “ACAT Inhibition (%)” value in experiment [1] came out at 79%.

With `CCCCCCCN(C)C(=O)Nc1ccc(OC)cc1NC(=O)c1cc(C(C)(C)C)c(O)c(C(C)(C)C)c1` [Example 21, N-[2-(3-heptyl-3-methylureido)-5-methoxyphenyl]-3,5-di-t-butyl-4-hydroxybenzamide], the “ACAT Inhibition (%)” value in experiment [1] was 93%.

Regarding `CCCCCCCNC(=O)Nc1ccc(F)cc1NC(=O)c1cc(C(C)(C)C)c(O)c(C(C)(C)C)c1` [Example 30, N-[5-fluoro-2-(3-heptylureido)phenyl]-3,5-di-t-butyl-4-hydroxybenzamide], the “ACAT Inhibition (%)” value in experiment [1] was 78%. The “Antioxidant Activity (%)” value in experiment [2] was determined as 79%.

As to `CCCCCCCNC(=O)Nc1ccccc1NCc1cc(C(C)(C)C)c(O)c(C(C)(C)C)c1` [Example 14], the “ACAT Inhibition (%)” value in experiment [1] was 81%. In experiment [2], the “Antioxidant Activity (%)” value is given as 96%.

For the molecule `CCCCCCCN(C)C(=O)Nc1ccc(F)cc1NC(=O)c1cc(C(C)(C)C)c(O)c(C(C)(C)C)c1` [Example 32, N-[5-fluoro-2-(3-heptyl-3-methylureido)phenyl]-3,5-di-t-butyl-4-hydroxybenzamide], the “ACAT Inhibition (%)” value in experiment [1] turned out to be 95%.

In the case of `CCCCCCCN(C)C(=O)Nc1ccccc1NC(=O)c1cc(C(C)(C)C)c(O)c(C(C)(C)C)c1` [Example 13, N-[2-(3-heptyl-3-methyl)ureido]phenyl-3,5-di-t-butyl-4-hydroxybenzamide], the “ACAT Inhibition (%)” value in experiment [1] came to 88%.

For the molecule `CC(C)(C)c1cc(C(=O)Nc2ccccc2NC(=O)N(Cc2ccccc2)Cc2ccccc2)cc(C(C)(C)C)c1O` [Example 8, N-[2-(3,3-dibenzylureido)phenyl]-3,5-di-t-butyl-4-hydroxybenzamide], the “ACAT Inhibition (%)” value in experiment [1] amounted to 85%. For the same molecule, the “Antioxidant Activity (%)” value in experiment [2] turned out to be 83%.
